According to PMC11434868, “Synthesis and Antiproliferative Effect of 3,4,5-Trimethoxylated Chalcones on Colorectal and Prostatic Cancer Cells” (Pharmaceuticals, 2024):
Read-outs that look alike come from different tables or passages of the source.

Columns and labels:
[1] = system: HCT116; assay: MTT assay, antiproliferative effect on HCT116; format: cell-based; conditions: Homo sapiens
Experimental: (§1) Human CRC (HCT116 and HT-29) and PCa (DU145 and PC3) cell lines were purchased from the American Type Culture Collection (ATCC—LGC Standards, Molsheim, France). All cells were grown in RPMI 1640 medium supplemented with 10% FBS, 1% L-glutamine, 100 U/mL penicillin, and 100 μg/mL streptomycin. Cultures were maintained in a humidified atmosphere containing 5% CO2 at 37 °C. Cells were seeded in 75 cm^2 culture flasks at 1.2 × 10^4 cells/cm^2 for HCT116, DU145, and PC3 cells, and 2.0 × 10^4 for HT-29 cells. Cells were grown for 24 h in culture medium prior to exposure or not to obtain the synthesized compounds. Stock solutions (10^−2 M in DMSO) of each compound were diluted in culture medium to obtain appropriate final concentrations.
(§2) • (a) MTT assay: The antiproliferative effect of all compounds was determined using MTT assay (a metabolic activity test). Briefly, cells were seeded in 96-well culture plates at 4 × 10^3 cells/well for HCT116, PC3, and DU145 cells and 6 × 10^3 cells/well for HT-29 cells (100 µL/well), and grown for 24 h in culture medium prior to exposure or not to obtain compounds 1–15 with concentrations ranging from 5 nM to 50 μM. After 24 and 48 h of treatment, MTT (5 mg/mL in PBS) was added and incubated for another 3 h. MTT was then removed from the wells before adding 100 μL/well of DMSO. The optical density was detected with a microplate reader (Multiskan FC, Thermoscientific, Bordeaux, France) at 550 nm and cell viability was expressed as a percentage of each treatment condition compared to control cells. IC50 values were calculated for all compounds from the dose–response curve. Data are expressed as the arithmetic means ± standard error of the mean (SEM) of separate experiments. All experiments were performed at least in triplicate. • (b) Trypan blue dye exclusion method: Cells were grown for 24 h then treated with compounds 10 and 13 at indicated concentrations. After 48 h of treatment, cells were trypsinized and resuspended in complete medium. Each sample was mixed with Trypan blue solution (0.14% in HBSS, Invitrogen-GIBCO, ThermoFisher, Illkirch, France). Colored (non-viable) and dye-excluding (viable) cells were counted with the LUNA-II automated cell Counter (Logos Biosystems; MC2, Aubière, France). The control was normalized to 100% including viable and dead cells. The results indicated on the histograms were expressed as the percentage of cells compared to the control. IC50 values were determined from the percentages of viable cells compared to the control.

[2] = system: HT-29; assay: MTT assay, antiproliferative effect on HT-29; format: cell-based, human
Experimental: as §1, §2

[3] = system: DU145; assay: MTT assay, antiproliferative effect on DU145; format: cell-based; conditions: Homo sapiens
Experimental: as §1, §2

[4] = system: PC3; assay: MTT assay, antiproliferative effect on PC3; format: cell-based; conditions: Homo sapiens
Experimental: as §1, §2

[5] = system: cellular microtubules in HeLa cells; assay: Quantitative assay of the cellular microtubule content (immunoluminescence); format: cell-based; conditions: Homo sapiens, 0.5 h, 30 min incubation
Experimental: The assay was realized as described by Laisne et al.. Briefly, 7500 HeLa cells were seeded in 96-well microplates (#655086, Greiner bioOne, Courtaboeuf, France) in 100 µL of complete medium per well and then incubated at 37 °C in 5% CO2 for 24 h. Cells were then treated for 30 min at 37 °C with the compounds at concentrations ranging from 0.1 to 1000 µM (1 microplate per molecule, 1 concentration per column), with 0.1% DMSO used as […] (6 wells per microplate). After medium aspiration, treated cells were permeabilized for 10 min using 100 µL per well of warmed (37 °C) OPT buffer (80 mM Pipes, 1 mM EGTA, 1 mM MgCl2, 0.5% Triton X-100, and 10% glycerol, pH 6.8). Cells were fixed overnight at room temperature using 100 µL per well of 4% formaldehyde (Sigma Aldrich, #252549, Saint-Quentin-Fallavier, France) in PBS. Cells were washed 3 times in PBS, 0.1% Tween-20 (100 µL per well), then primary anti-alpha-tubulin antibody (clone α3A1), 1:5000 in PBS 2% Bovine Serum Albumin (BSA), was added for 45 min. Cells were washed twice again and secondary anti-mouse antibody coupled to HRP (1:2000 in PBS 2% BSA, #715-035-150, Jackson Immuno-Research Laboratories, Cambridgeshire, UK) was added for 45 min. Then, cells were washed again with PBS and 100 µL of ECL substrate (#170-5061, Bio-Rad Laboratories Inc., Hercules, CA, USA) was injected in each well using the FLUOstar OPTIMA Microplate Reader (BMG Lab technology, Champagny-sur-Marne, France). The luminescent signal was read immediately after ECL injection. IC50 values were calculated using GraphPad Prism software (10.3.1 version) and are presented in the text as means ± SEM of three independent experiments.

[6] = system: HeLa cells microtubules; assay: Tubulin immunofluorescence; format: cell-based; conditions: 30 min, chalcone 8 at 1 µM or chalcone 2 at 200 µM
Experimental: Cells at a density of 20,000 cells per well were grown for 48 h on glass coverslips placed in a 24-well microplate. When cells reached 70% confluence, the medium was replaced with a fresh one supplemented with DMSO (0.005% or 0.01%) or the test compound at 1 or 200 µM. After 30 min of incubation, cells were permeabilized in warm OPT buffer (80 mmol/L Pipes, […], 0.5% Triton X-100 and 10% Glycerol, pH 6.8) and fixed for 6 min in −20 °C methanol (Carlo ERBA SAS, #414855, Val-de-Reuil, France). After washing and saturation with a specific blocking buffer (3% BSA), 10% Goat serum (Gibco Invitrogen, #16210064, Carlsbad, CA, USA) in PBS, cells were incubated for 45 min at room temperature (RT) with anti-alpha-tubulin antibody (clone α3A1 in blocking buffer). Cells were washed twice again and subsequently incubated with Alexa 488 conjugated anti-mouse antibody (1:500 in blocking buffer, #115-545-166, Jackson immune-research laboratory, Cambridgeshire, UK) and DNA was stained with Dapi which was included in mounting media (Dapi fluoromount, #0100-20, Clinisciences, France). Images were captured with a Zeiss AxioimagerM2 microscope (Zeiss microscopy, Rueil Malmaison, France) equipped with the acquisition software AxioVision (4.8 version, Marly-le-Roi, France).

[7] = system: human PCa (DU145 and PC3) cell lines; assay: MTT assay, summary statements for PCa cells; format: cell-based
Experimental: as §1, §2

[8] = HCT-116, 24 h, read-out: IC50 HCT116 24 h
[9] = HCT-116, 48 h, read-out: IC50 HCT116 48 h
[10] = 48 h, read-out: IC50 HT-29 48 h
[11] = Homo sapiens, HT-29, 24 h, 24 h, read-out: IC50 HT-29 24 h
[12] = Homo sapiens, HT-29, 48 h, 48 h, read-out: IC50 HT-29 48 h
[13] = DU-145, 24 h, read-out: IC50 DU145 24 h
[14] = DU-145, 48 h, read-out: IC50 DU145 48 h
[15] = PC-3, 24 h, read-out: IC50 PC3 24 h
[16] = PC-3, 48 h, read-out: IC50 PC3 48 h
[17] = read-out: IC50 depolymerization of cellular microtubules

Row | SMILES | IC50 [1, 8] [µM] | IC50 [1, 9] [µM] | IC50 [2, 10] [µM] | IC50 [2, 11] [µM] | IC50 [2, 12] [µM] | IC50 [3, 13] [µM] | IC50 [3, 14] [µM] | IC50 [4, 15] [µM] | IC50 [4, 16] [µM] | IC50 ([5]; no unit in the picture, read-out: IC50 microtubule contents (printed in Figure 8)) [µM] | IC50 [5, 17] [µM] | state of tubulin / microtubules by immunofluorescence [6] | IC50 ([7]; Homo sapiens, DU-145, DU145 and PC3, text summary, read-out: IC50 against PCa cells) [µM] | IC50 ([7]; DU145 and PC3, read-out: IC50 towards PCa cells) [µM] | IC50 ([7]; Homo sapiens, DU-145, DU145 and PC3, text summary, read-out: IC50 towards PCa cells) [µM]
1 | COc1cc(C(=O)/C=C/c2cccc(O)c2)cc(OC)c1OC [chalcone 2, (E)-3-(3-hydroxyphenyl)-1-(3,4,5-trimethoxyphenyl)prop-2-en-1-one] | 4.23 ± 0.11 | 2.66 ± 0.1 | 7.34 ± 0.22 | 9.87 ± 0.44 | 7.3 | 3.47 ± 0.24 | 2.97 ± 0.15 | 3.76 ± 0.28 | 3.44 ± 0.11 | 106 ± 4.69 | 106 ± 4.7 | tubulin is mainly in its depolymerized form | ~3 |  | 
2 | COc1ccc(/C=C/C(=O)c2cc(OC)c(OC)c(OC)c2)cc1O [chalcone 8, (E)-3-(3-hydroxy-4-methoxyphenyl)-1-(3,4,5-trimethoxyphenyl)prop-2-en-1-one] | 0.22 ± 0.01 | 0.11 ± 0.02 | 8.11 ± 0.5 | 8.03 ± 0.18 | 8.1 | 0.036 ± 0.002 | 0.031 ± 0.001 | 0.021 ± 0.001 | 0.02 ± 0.001 |  | 0.289 ± 0.045 | tubulin is mainly in its depolymerized form |  | ~0.02 | 0.017 to 0.031
